The source made the active and inactive calls.
Legend:
Tumor necrosis factor = Tumor necrosis factor (Homo sapiens, UniProt P01375); assay: analog potency on TNFa NF-kB signaling – cell-based, set 3, SAR follow-up (AID 2801); format: functional
[1] = system: Streptococcus sp. 'group A'; assay: Streptococcus pyogenes SK(-)GAS viability under kanamycin – luminescence, BacTiterGlo, confirmation, counter-screen for streptokinase expression inhibitor project, dose response (AID 1900); format: functional, organism-based
HEK293 [2] = assay: SAR analysis of compounds that are cytotoxic to HEK293 - Set 3. [Related pubchem assays (depositor defined):AID1575, AID1578, AID1848, AID1849, AID2001, AID2333, AID2334, AID2335, AID2337, AID2469]; format: functional, cell-based; conditions: Homo sapiens
Interleukin-8 [3] = target: T1, Interleukin-8 (Homo sapiens, UniProt P10145); assay: SAR analysis of Tumor necrosis factor alpha (TNF-alpha) induced IL-8 secretion in MCF-7/NOD1 cells - Set 2. [Related pubchem assays (depositor defined):AID1575, AID2250, AID2260]; format: functional, cell-based
T1 sequence (P10145 whole entry): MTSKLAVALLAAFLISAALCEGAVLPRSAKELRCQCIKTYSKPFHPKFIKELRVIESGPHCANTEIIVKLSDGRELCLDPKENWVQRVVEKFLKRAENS

Interleukin-8 [4] = target: T1, Interleukin-8; assay: SAR analysis of GM-Tri-DAP induced IL-8 secretion in MCF-7/NOD1 cells - Set 2. [Related pubchem assays (depositor defined):AID1575, AID1578, AID2333]; format: functional, cell-based
[5] = target: T2, Nucleotide-binding oligomerization domain-containing protein 2 (Homo sapiens, UniProt Q9HC29); assay: inhibition of NOD2 signaling – set 2, SAR follow-up (AID 2475); format: functional
[6] = target: T3, Nucleotide-binding oligomerization domain-containing protein 1 (Homo sapiens, UniProt Q9Y239); assay: SAR analysis of NF-kappaB dependent luciferase using DAP as an inducer - Set 2. [Related pubchem assays (depositor defined):AID1566, AID1575, AID1578, AID1579, AID1849, AID1852, AID2264]; format: functional
T3 sequence (Q9Y239 whole entry): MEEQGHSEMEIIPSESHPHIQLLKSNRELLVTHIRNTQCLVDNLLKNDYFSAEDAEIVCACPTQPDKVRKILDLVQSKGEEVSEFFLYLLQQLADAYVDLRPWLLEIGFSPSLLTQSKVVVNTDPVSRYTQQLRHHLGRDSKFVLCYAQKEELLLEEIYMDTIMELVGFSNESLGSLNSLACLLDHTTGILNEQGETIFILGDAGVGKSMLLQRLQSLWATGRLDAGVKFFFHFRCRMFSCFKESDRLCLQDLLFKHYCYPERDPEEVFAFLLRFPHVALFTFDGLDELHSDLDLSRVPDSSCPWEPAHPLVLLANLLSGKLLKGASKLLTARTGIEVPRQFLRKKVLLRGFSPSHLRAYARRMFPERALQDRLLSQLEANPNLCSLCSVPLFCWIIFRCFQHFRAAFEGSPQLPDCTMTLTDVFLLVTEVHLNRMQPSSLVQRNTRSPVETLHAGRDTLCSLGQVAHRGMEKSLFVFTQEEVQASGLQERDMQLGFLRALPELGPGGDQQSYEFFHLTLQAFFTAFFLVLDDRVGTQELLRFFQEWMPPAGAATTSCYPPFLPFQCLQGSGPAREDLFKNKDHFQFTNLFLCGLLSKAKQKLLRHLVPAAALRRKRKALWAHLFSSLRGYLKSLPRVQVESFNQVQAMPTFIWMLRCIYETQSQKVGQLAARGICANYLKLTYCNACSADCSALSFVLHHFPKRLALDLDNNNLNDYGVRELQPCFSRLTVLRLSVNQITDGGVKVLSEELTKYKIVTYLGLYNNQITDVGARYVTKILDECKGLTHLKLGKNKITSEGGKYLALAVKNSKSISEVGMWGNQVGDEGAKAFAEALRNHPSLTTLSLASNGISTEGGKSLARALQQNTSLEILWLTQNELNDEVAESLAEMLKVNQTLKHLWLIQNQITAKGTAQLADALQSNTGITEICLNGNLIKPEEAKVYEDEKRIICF

Streptokinase A = target: T4, Streptokinase A (Streptococcus pyogenes serotype M1, UniProt P10520); assay: viability-normalized secreted streptokinase activity reduction – plasminogen activation absorbance, OD405, dose response (AID 1914); format: functional, Streptococcus pyogenes M1 GAS;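 also: secreted streptokinase activity via plasminogen activation per viability signal from cell pellet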
T4 sequence (P10520 whole entry): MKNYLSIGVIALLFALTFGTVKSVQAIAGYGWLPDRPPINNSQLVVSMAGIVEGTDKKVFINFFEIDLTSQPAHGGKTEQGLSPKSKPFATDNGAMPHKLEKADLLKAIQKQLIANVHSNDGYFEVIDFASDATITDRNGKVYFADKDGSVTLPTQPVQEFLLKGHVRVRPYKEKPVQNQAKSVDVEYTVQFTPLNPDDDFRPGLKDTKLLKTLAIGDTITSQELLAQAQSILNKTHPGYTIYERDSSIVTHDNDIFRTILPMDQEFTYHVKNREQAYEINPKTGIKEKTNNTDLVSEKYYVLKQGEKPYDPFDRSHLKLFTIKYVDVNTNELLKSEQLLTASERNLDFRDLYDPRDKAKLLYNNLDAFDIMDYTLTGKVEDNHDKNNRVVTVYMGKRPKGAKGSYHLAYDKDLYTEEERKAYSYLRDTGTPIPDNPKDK

Streptococcus = assay: GAS UMAA2166 growth inhibition – luminescence, BacTiterGlo, counter-screen for streptokinase expression inhibitor project, dose response (AID 1915); format: functional, organism-based;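 also: potency for reduction of bacterial viability or growth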
[7] = target: T3, Nucleotide-binding oligomerization domain-containing protein 1; assay: SAR analysis of compounds that inhibit NOD1 - Set 2. [Related pubchem assays (depositor defined):AID1566, AID1575, AID1578, AID1849, AID1852, AID2333, AID2335, AID2798]; format: functional
[8] = target: T3, Nucleotide-binding oligomerization domain-containing protein 1; assay: SAR analysis of compounds that inhibit NOD1 - Set 3. [Related pubchem assays (depositor defined):AID1566, AID1575, AID1578, AID1849, AID1852, AID2333, AID2335, AID2466]; format: functional
[9] = target: T2, Nucleotide-binding oligomerization domain-containing protein 2; assay: inhibition of MDP-driven NOD2 NF-kB reporter – cell-based, set 3, SAR follow-up (AID 2799); format: functional
HEK293 [10] = assay: SAR analysis of compounds that are cytotoxic to HEK293 - Set 2. [Related pubchem assays (depositor defined):AID1575, AID1578, AID1849, AID2001, AID2333, AID2334, AID2335, AID2337, AID2800]; format: functional, cell-based; conditions: Homo sapiens
[11] = target: Intestinal-type alkaline phosphatase (Mus musculus, UniProt P24822); assay: PubChem AID 488785; format: functional
[12] = target: Intestinal-type alkaline phosphatase (Homo sapiens, UniProt P09923); assay: inhibition of human intestinal alkaline phosphatase – biochemical, dose response (AID 488876); format: functional
[13] = target: T5, Heat shock factor protein 1 (Mus musculus, UniProt P38532); assay: decrease of HSF1-responsive luciferase luminescence – cell-based, NIH3T3, dose retest, confirmation (AID 2382); format: functional;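 also: NIH3T3 fibroblasts with HSF1-driven luciferase reporter stressed by proteasome inhibitor MG132; luminescence from HSF1-driven luciferase expression after 8 hours of MG132 stress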
T5 sequence (P38532 whole entry): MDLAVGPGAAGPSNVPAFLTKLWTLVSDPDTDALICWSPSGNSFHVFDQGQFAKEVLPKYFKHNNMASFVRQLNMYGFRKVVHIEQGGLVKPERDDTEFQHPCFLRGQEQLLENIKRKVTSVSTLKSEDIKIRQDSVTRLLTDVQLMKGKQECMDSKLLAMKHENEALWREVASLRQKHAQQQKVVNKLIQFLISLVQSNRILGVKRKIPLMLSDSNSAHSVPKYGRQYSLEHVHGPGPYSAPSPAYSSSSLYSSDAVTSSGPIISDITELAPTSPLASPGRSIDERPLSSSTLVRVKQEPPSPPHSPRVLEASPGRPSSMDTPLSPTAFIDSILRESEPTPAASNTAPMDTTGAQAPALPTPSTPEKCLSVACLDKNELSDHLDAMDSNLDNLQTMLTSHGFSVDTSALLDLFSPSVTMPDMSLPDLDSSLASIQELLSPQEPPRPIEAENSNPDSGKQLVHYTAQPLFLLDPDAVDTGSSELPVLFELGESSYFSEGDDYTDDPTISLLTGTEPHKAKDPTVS

[14] = target: T6, Alkaline phosphatase, tissue-nonspecific isozyme (Homo sapiens, UniProt P05186); assay: TNAP enzyme inhibition by screening hits, dose response, selectivity assay for mouse IAP inhibitor project, biochemical, human TNAP, uHTS hits (AID 488906); format: functional
T6 sequence (P05186 whole entry): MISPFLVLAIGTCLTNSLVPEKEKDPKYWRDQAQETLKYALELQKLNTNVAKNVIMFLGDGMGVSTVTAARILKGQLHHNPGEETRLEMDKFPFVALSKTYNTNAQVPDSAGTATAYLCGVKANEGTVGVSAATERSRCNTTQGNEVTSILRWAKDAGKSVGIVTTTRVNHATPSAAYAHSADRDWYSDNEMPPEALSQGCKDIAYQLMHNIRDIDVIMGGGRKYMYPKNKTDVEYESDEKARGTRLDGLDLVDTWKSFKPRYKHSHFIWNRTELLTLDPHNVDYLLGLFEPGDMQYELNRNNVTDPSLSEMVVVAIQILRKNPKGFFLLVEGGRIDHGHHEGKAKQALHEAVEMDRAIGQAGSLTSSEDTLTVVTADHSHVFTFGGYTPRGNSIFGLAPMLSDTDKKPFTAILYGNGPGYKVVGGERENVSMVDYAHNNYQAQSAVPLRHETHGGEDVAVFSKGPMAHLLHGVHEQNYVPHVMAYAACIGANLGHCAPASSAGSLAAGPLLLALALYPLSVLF

T2 sequence (Q9HC29 whole entry, the tested form may be a part): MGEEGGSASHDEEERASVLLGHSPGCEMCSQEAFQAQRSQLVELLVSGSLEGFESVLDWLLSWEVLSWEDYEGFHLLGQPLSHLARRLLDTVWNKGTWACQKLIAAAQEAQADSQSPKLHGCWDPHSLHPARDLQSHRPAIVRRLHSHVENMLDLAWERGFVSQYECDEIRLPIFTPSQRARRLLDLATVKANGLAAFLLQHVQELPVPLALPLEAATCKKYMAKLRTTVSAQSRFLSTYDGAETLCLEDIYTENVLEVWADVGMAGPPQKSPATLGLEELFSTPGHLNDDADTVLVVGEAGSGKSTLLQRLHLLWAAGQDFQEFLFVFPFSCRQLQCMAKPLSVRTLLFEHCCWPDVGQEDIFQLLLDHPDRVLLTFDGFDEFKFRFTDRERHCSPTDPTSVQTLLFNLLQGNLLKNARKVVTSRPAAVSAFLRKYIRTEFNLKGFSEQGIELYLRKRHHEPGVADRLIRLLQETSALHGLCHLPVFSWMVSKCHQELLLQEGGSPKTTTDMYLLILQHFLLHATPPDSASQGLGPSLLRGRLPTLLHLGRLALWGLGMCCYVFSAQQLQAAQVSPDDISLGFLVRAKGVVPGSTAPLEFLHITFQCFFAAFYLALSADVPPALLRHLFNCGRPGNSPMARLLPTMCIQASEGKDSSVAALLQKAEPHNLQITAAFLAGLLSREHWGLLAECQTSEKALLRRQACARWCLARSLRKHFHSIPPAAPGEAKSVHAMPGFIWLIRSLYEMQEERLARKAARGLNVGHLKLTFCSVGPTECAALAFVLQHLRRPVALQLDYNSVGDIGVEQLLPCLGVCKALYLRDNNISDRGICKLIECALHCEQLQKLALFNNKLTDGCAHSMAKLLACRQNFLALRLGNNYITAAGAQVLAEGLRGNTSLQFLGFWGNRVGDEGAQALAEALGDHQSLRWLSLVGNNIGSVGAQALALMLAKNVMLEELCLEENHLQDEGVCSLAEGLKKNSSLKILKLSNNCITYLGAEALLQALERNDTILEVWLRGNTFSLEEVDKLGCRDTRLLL
Chain of Tumor necrosis factor (P01375 whole entry): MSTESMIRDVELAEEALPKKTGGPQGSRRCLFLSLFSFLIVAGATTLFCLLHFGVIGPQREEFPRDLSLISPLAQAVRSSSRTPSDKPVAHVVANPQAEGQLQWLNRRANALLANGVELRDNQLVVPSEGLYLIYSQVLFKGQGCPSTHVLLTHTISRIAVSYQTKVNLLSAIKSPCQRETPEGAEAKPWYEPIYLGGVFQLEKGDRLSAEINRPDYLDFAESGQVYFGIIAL
Chain of Intestinal-type alkaline phosphatase (Mus musculus, UniProt P24822) (P24822 whole entry): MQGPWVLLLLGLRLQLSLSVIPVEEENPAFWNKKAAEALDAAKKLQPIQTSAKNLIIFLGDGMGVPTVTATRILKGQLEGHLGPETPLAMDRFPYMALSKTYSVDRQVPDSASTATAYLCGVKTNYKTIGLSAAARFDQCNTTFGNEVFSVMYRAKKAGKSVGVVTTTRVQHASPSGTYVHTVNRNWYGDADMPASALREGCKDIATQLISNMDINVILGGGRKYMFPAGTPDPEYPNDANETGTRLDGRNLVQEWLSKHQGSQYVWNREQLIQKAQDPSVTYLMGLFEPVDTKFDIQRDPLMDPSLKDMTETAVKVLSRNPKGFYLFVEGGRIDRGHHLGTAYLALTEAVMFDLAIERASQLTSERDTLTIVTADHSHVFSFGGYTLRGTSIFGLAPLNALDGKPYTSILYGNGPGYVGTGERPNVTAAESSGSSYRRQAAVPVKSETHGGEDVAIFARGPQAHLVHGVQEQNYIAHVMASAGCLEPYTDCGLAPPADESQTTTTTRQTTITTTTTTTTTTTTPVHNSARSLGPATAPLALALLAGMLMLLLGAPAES
Chain of Intestinal-type alkaline phosphatase (Homo sapiens, UniProt P09923) (P09923 whole entry): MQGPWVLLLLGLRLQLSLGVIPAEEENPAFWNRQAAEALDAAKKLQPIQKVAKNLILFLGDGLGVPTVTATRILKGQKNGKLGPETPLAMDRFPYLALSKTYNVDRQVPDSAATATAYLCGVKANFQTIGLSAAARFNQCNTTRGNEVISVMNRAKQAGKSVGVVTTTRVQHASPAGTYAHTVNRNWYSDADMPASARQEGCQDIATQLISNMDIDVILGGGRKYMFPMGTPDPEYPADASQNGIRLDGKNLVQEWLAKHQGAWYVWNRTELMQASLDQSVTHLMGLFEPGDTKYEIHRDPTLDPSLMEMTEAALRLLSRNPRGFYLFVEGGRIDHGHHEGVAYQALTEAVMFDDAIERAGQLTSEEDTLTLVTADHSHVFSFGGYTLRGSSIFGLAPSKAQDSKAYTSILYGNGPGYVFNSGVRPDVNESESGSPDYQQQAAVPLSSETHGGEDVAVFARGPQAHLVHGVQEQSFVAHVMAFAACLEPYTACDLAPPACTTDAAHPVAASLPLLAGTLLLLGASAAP

Structure (SMILES) | IC50 (Tumor necrosis factor) | EC50 [1] | IC50 (HEK293 [2]) | IC50 (Interleukin-8 [3]) | IC50 (Interleukin-8 [4]) | IC50 [5] | IC50 [6] | EC50 (Streptokinase A) | EC50 (Streptococcus) | IC50 [7] | IC50 [8] | IC50 [9] | IC50 (HEK293 [10]) | IC50 [11] | IC50 [12] | EC50 [13] | IC50 [14]
CCCCn1c(SCC(=O)c2ccccc2)nc2c1c(=O)[nH]c(=O)n2C | > 20 µM (inactive) | 3.37 µM (active) | > 20 µM (inactive) | > 25 µM (inactive) | > 25 µM (inactive) | > 20 µM (inactive) | > 25 µM (inactive) | > 150 µM (not active) | 18.4 µM (active) | > 20 µM (inactive) | > 20 µM (inactive) | > 20 µM (inactive) | > 20 µM (inactive) |  |  |  | 
CCn1cc(CN2CCC(C(=O)Nc3cccc(-c4cccc(Cl)c4)c3)CC2)c(C)n1 |  |  |  |  |  |  |  |  |  |  |  |  |  | 12.8 µM (active) | > 100 µM (inactive) | > 195 µM (not active) | > 100 µM (inactive)
